The record followed here is ChEMBL document CHEMBL5370574, “Discovery and Characterization of Moracin C as an Anti-Gouty Arthritis/Hyperuricemia Candidate by Docking-Based Virtual Screening and Pharmacological Evaluation” (J Nat Prod, 2023).

In assay [1] the target is T1, Xanthine dehydrogenase/oxidase (Homo sapiens, UniProt P47989). The experiment in a line: Inhibition of XOD (unknown origin) using xanthine as substrate at 1 uM preincubated for 30 mins followed by xanthine addition measured after 30 mins by microplate reader relative to control. Particulars: 0.5 h, time 60 min.
The target in assay [2] is T1, Xanthine dehydrogenase/oxidase. The experiment in a line: Inhibition of XOD (unknown origin) using xanthine as substrate preincubated for 30 mins followed by xanthine addition measured after 30 mins by microplate reader.
The subject of assay [3] is Rattus norvegicus. The experiment in a line: Antiarthritic activity against MSU-induced Sprague-Dawley rat OA model assessed as inflammation index at 10 mg/kg, ig administered for 3 days. It counts as functional. The conditions noted are these: time 3 day.
Assay [4] deals with Rattus norvegicus. The experiment in a line: Antiarthritic activity against MSU-induced Sprague-Dawley rat OA model assessed as reduction of serum TNF-alpha protein expression level at 10 mg/kg, ig administered for 3 days by ELISA. It counts as functional, organism-based. Particulars: time 3.0 day. In general terms: In an ELISA, binding on a coated surface is turned into a signal by an enzyme label.

Assay [5] deals with Rattus norvegicus. The experiment in a line: Antiarthritic activity against MSU-induced Sprague-Dawley rat OA model assessed as dysfunction index at 10 mg/kg, ig administered for 3 days. It counts as functional. The conditions noted are these: time 3 day.
Assay [6] deals with Rattus norvegicus. The experiment in a line: Antiarthritic activity against MSU-induced Sprague-Dawley rat OA model assessed as toe swelling volume variation at 10 mg/kg, ig administered for 3 days. Particulars: time 3 day. The assay is classed as functional.
Assay [7] has as its system Rattus norvegicus. The experiment in a line: Antiarthritic activity against MSU-induced Sprague-Dawley rat OA model assessed as dysfunction index at 1 mg/kg, ig administered for 3 days. It counts as functional, organism-based. Particulars: time 3.0 day.
Assay [8] relates to Rattus norvegicus. The experiment in a line: Antiarthritic activity against MSU-induced Sprague-Dawley rat OA model assessed as toe swelling volume variation at 1 mg/kg, ig administered for 3 days. The assay is classed as functional, organism-based. Particulars: time 3.0 day.
The subject of assay [9] is Rattus norvegicus. The experiment in a line: Antiarthritic activity against MSU-induced Sprague-Dawley rat OA model assessed as reduction in NLRP3 mRNA expression level in tissue joint at 10 mg/kg, ig administered for 3 days by qRT-PCR analysis. The conditions noted are these: time 3.0 day. It counts as functional, organism-based. (Quantitative PCR measures a nucleic acid by following its amplification.)

Assay [10] relates to Rattus norvegicus. The experiment in a line: Antiarthritic activity against MSU-induced Sprague-Dawley rat OA model assessed as reduction in ASC mRNA expression level in tissue joint at 10 mg/kg, ig administered for 3 days by qRT-PCR analysis. The conditions noted are these: time 3.0 day. The assay is classed as functional, organism-based.
For assay [11], the system named is Rattus norvegicus. The experiment in a line: Antiarthritic activity against MSU-induced Sprague-Dawley rat OA model assessed as reduction in Caspase-1 mRNA expression level in tissue joint at 10 mg/kg, ig administered for 3 days by qRT-PCR analysis. It counts as functional, organism-based. The conditions noted are these: time 3.0 day.
Assay [12] concerns Rattus norvegicus. The experiment in a line: Antiarthritic activity against MSU-induced Sprague-Dawley rat OA model assessed as inflammation index at 1 mg/kg, ig administered for 3 days. It counts as functional, organism-based. The conditions noted are these: time 3.0 day.

SMILES strings stand for the structures. Active and inactive are the calls of the source. No cut-off for these calls is given here.

T1 sequence (P47989 whole entry): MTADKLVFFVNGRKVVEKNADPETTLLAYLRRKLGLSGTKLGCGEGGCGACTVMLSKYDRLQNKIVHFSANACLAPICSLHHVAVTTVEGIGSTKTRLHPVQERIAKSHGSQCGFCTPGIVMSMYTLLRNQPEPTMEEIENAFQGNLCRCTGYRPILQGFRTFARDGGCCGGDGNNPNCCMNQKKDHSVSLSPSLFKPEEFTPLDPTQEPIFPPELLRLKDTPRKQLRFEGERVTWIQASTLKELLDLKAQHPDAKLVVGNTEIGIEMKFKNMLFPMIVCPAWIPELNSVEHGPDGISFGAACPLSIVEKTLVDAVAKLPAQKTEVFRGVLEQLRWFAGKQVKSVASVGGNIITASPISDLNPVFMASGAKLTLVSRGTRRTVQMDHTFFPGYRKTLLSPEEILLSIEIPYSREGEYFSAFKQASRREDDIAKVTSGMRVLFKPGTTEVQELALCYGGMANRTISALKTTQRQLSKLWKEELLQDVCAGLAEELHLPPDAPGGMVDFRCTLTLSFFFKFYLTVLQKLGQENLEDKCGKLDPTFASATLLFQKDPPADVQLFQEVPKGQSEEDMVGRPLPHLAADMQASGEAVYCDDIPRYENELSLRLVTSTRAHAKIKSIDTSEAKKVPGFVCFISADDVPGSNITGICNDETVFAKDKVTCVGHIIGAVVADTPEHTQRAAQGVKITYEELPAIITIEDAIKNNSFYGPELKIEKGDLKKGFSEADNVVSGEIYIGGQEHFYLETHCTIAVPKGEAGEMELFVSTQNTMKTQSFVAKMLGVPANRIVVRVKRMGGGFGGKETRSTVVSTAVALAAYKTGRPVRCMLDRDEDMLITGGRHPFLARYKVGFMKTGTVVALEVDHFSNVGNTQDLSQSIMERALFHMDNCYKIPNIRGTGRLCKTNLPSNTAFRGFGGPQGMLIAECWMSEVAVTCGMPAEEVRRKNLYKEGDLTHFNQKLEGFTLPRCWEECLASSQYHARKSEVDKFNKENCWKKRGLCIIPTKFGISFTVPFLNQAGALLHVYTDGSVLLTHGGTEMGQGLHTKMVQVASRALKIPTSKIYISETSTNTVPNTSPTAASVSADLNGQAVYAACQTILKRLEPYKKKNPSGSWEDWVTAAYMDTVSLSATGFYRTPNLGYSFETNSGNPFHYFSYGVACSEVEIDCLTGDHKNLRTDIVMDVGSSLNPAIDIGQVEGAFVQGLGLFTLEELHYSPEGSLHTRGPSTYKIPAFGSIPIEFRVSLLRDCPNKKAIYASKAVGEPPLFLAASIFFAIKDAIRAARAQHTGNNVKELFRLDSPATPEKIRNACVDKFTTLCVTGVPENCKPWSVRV

One may read the inhibition as the relative decrease from the control value, in per cent. A higher inhibition goes with strong suppression. The term IC50 denotes the concentration needed to halve the response being measured. A higher IC50 goes with lower potency. Compound `COc1ccc2c(=O)c(-c3ccc(O)cc3)coc2c1` [ISOFORMONENTIN] returned an inhibition at 1 µM in [1] of 25%. The half-maximal inhibitory concentration (IC50) in assay [2] was found to be 13 µM.

For `COc1cc2c(c(OC)c1OC)-c1ccc(OC)c(=O)cc1[C@@H](NC(C)=O)CC2` [COLCHICINE], the Activity_index in the assay with Rattus norvegicus [3] stood at 0.6; in the assay with Rattus norvegicus [5], 0. In addition, the outcome with Rattus norvegicus [4], in the assay with Rattus norvegicus [7], with Rattus norvegicus [8], in the assay on Rattus norvegicus [9], with Rattus norvegicus [10] and in the assay on Rattus norvegicus [11] was Active. The outcome in the assay with Rattus norvegicus [12] was Active. Also, in the assay with Rattus norvegicus [6], the Activity came out at 0.03 mL.

On to `COc1cc(O)c2c(=O)cc(-c3cc(OC)c(OC)c(OC)c3)oc2c1` [CORYMBOSIN], for which the inhibition at 1 µM in [1] is less than 20%.

For `CC1(C)C=Cc2c(ccc3c2O[C@H]2c4ccc(O)cc4OC[C@@H]32)O1` [PHASEOLIN], the inhibition at 1 µM in [1] is less than 20%.

`COc1cc2c(cc1OC)C(Cc1ccc(O)cc1)N(C)CC2` (stereo not given) gave an inhibition at 1 µM in [1] of less than 20%.
